SMILES | melting point
Cc1noc(NC(=O)CCl)n1 | 161 to 163 °C
O=C1Nc2c(Br)ccc(Br)c2C1=O | 271 to 273 °C
O=S(=O)(F)Cc1ccccc1Cl | 69 to 71 °C
NC(=O)c1csc(C(=O)CCl)c1 | 175 to 177 °C
CC(N)Cc1cccc(O)c1 (stereo not given) | 45 to 47 °C
O=C(O)c1ccc(SCc2cn3ccccc3n2)cc1 | 102 to 103 °C
COc1ccc(CNc2nccs2)c(OC)c1 | 112 to 114 °C
COc1cccc(-c2noc(Cl)n2)c1 | 56 to 58 °C
CN1CCc2ccc(S(=O)(=O)Cl)cc21 | 62 to 64 °C
CCOC(=O)c1c(C)c2c(=O)[nH]nc(S)n2c1C | 218 to 220 °C
O=C(O)c1cc2ccccc2cc1NC(=O)C1CC1 | 235 to 237 °C
O=C(O)/C=C/c1ccc(N2CCCS2(=O)=O)cc1 | 252 to 254 °C
Sc1nnc(-c2c[nH]c3ccccc23)n1CC1CCCO1 (stereo not given) | 251 to 253 °C
CC(C)(CCC(=O)O)NC(=O)OCC1c2ccccc2-c2ccccc21 | 119 to 121 °C
CC(=O)NC(Cc1c[nH]c2cc(F)ccc12)C(=O)O (stereo not given) | 181 to 183 °C
COc1ccc(-c2cnnc(N)n2)cc1 | 246 to 248 °C
CC(O)(C(=O)O)c1ccc(Cl)cc1 (stereo not given) | 129 to 131 °C
CCNS(=O)(=O)c1cc(F)ccc1F | 68 to 70 °C
COc1ccc(C(=O)O)cc1S(=O)(=O)Nc1ccc(Br)cc1 | 257 to 259 °C
N#CCc1ccc(NC2CCCCC2)cc1 | 57 to 59 °C
C=CC(=O)Nc1ccc(Br)cc1 | 197 to 199 °C

SMILES | melting point
O=C(O)c1ccc2cc[nH]c2n1 | 209 to 211 °C
O=C(O)c1nccnc1C(=O)N1CCOCC1 | 185 to 187 °C
O=C(O)c1cccnc1SCC1CCCCC1 | 145 to 147 °C
O=S(=O)(c1cccc(-c2nnc(S)n2Cc2ccc(F)cc2)c1)N1CCOCC1 | 231 to 233 °C
O=S1(=O)C=CCC1 | 62 to 64 °C
O=C1OC(=O)C(Cl)=C1Cl | 107 to 109 °C
O=C(O)Cn1c(=O)oc2cc([N+](=O)[O-])ccc21 | 214 to 216 °C
O=C(NO)C1CCCC1 | 107 to 109 °C
Cc1nn(C)c(C)c1CC(C)C(=O)O (stereo not given) | 125 to 127 °C
COc1ccccc1-c1nn(Cc2ccccc2)cc1C(=O)O | 152 to 154 °C
CN1CCC(Nc2ccc3cn[nH]c3c2)CC1 | 165 to 167 °C
O=C(O)CNC(=O)c1ccccc1Br | 138 to 140 °C
Fc1cc(CBr)ccc1Br | 38 to 40 °C
CS(=O)(=O)N1CCc2ccccc2C1CC(=O)O (stereo not given) | 126 to 128 °C
CN(C)C(=O)Sc1ccc(CCl)cc1 | 78 to 80 °C
Cc1nn(-c2ccccc2)c(C)c1C(=O)C(=O)O | 206 to 208 °C
Nc1ccc(N2CCCCC2)c2ccncc12 | 149 to 151 °C
O=S(=O)(Cl)c1c(Cl)ccc2c(Cl)ccnc12 | 155 to 157 °C
Nc1cc(C(F)(F)F)ccc1N1CC(C(F)(F)F)OC1=O (stereo not given) | 99 to 101 °C
Nc1ncc(Cc2ccc(Cl)cc2Cl)s1 | 109 to 111 °C
O=C(O)C=Cc1cc(Br)ccc1OC(F)F | 155 to 157 °C

SMILES | melting point
O=C(O)CCNS(=O)(=O)c1ccc(Cl)c([N+](=O)[O-])c1 | 113 to 115 °C
O=C1NC(=O)C(c2ccc(Cl)cc2Cl)N1 (stereo not given) | 179 to 181 °C
O=C(O)CC1CSCCS1 (stereo not given) | 77 to 79 °C
O=C1CSC(NC2CCCC2)=N1 | 110 to 112 °C
Cc1ccc(C(=O)NC(CC(=O)O)c2ccccc2)cc1 (stereo not given) | 190 to 192 °C
OCc1cc(Cl)cc2c1OCC2 | 97 to 99 °C
Oc1ccnc(C2CC2)n1 | 152 to 154 °C
N#Cc1cnn(-c2ccccc2)n1 | 90 to 92 °C
CC(Cl)c1cccc([N+](=O)[O-])c1 (stereo not given) | 33 to 35 °C
CCc1cccc(Oc2ccc(F)cc2C=CC(=O)O)c1 | 106 to 108 °C
COc1ccc([N+](=O)[O-])cc1NS(=O)(=O)c1ccc(Cl)c(C(=O)O)c1 | 221 to 223 °C
COC(=O)c1ccc(CNc2ccc3c[nH]nc3c2)cc1 | 152 to 154 °C
Fc1cccc2[nH]c(C3CCNCC3)nc12 | 229 to 231 °C
CC(C)N1C2CCC1CC(O)C2 (stereo not given) | 90 to 92 °C
O=C(O)C=CC(=O)NCc1ccncc1 | 139 to 141 °C
NC(=NO)c1cccnc1N1CCCCC1 | 149 to 151 °C
O=C(NC(CO)C(=O)O)c1cccc(Br)c1 (stereo not given) | 140 to 142 °C
Cc1c(Br)cc(S(C)(=O)=O)cc1C(=O)O | 134 to 136 °C
O=C(O)c1ccc(-c2ccccc2)cc1F | 187 to 189 °C

Results, then the compound that gave them:

melting point | SMILES
132 to 134 °C | CC(O)c1c(Cl)nc2ccccn12 (stereo not given)
262 to 264 °C | O=C(O)Cc1ccc(S(=O)(=O)N2CCCC2)s1
81 to 83 °C | O=C(O)COC(c1ccccc1)c1ccccc1
87 to 89 °C | NC(=NO)C1CCCCCC1
186 to 188 °C | O=C(O)CNC(=O)c1c(Cl)cccc1[N+](=O)[O-]
198 to 200 °C | O=C(O)c1cc(Cl)ccc1-n1cnnn1
115 to 117 °C | O=[N+]([O-])c1cccc(-c2nnc(CCl)o2)c1
77 to 81 °C | Nc1cc(Cl)ccc1NCc1ccccc1
209 to 211 °C | O=C(O)c1c[nH]cc1-c1cc(Cl)c2c(c1)OCCO2
135 to 137 °C | Cc1cc(N)ccc1-n1cnnn1
54 to 56 °C | CS(=O)(=O)c1cccnc1
205 to 207 °C | Nc1nc(-c2ccc3ccccc3c2)n[nH]1
192 to 194 °C | O=C(O)c1csc(-c2ccccc2Cl)n1
97 to 99 °C | CCOC(=O)c1ccn(-c2ccc(N)cc2)n1
94 to 98 °C | Cc1cccc(NC(S)=C(C#N)c2nc3ccccc3s2)c1C
144 to 146 °C | Cc1ccc(N2CCc3c(N)cccc3C2)nn1
139 to 141 °C | CC(=O)c1c(C)nn(CCS(C)(=O)=O)c1C
177 to 179 °C | Cc1c(-c2cccnc2)noc1N
45 to 47 °C | ClCCc1nnnn1-c1ccccc1
141 to 143 °C | CN(CC(=O)O)C(N)=O
46 to 48 °C | COC(=O)C(NS(C)(=O)=O)C(C)C (stereo not given)
169 to 171 °C | Cc1ccc(C(=O)O)c(Sc2ccccc2)n1
91 to 93 °C | Cc1cc(C(=O)NCC(C)C)ccc1N
59 to 63 °C | CCCC(=O)c1cccc([N+](=O)[O-])c1
128 to 130 °C | Nc1ccc(F)c(S(=O)(=O)N2CCOCC2)c1
140 to 142 °C | O=C(O)c1ccc(Br)nn1
103 to 105 °C | Nc1ccccc1C(=O)Nc1ccc(F)cc1Cl

melting point | SMILES
249 to 251 °C | Nc1nc(-c2ccc3c(c2)CC(=O)N3)cs1
107 to 109 °C | CC(C(=O)c1ccccc1)N1C(=O)CCC1=O (stereo not given)
250 to 252 °C | CCN(CC)S(=O)(=O)c1c[nH]c(C(=O)O)c1
193 to 195 °C | NC(=O)N1CCC(C(=O)O)CC1
140 to 142 °C | NC(=O)CNCc1ccc(OCc2ccccc2)cc1
251 to 253 °C | O=C(O)c1cc2c(cc1Cl)N1CCCCCC1=NS2(=O)=O
85 to 87 °C | CC(=O)NC=C(Cl)Cl
211 to 213 °C | O=C(O)c1ccccc1NS(=O)(=O)c1ccc(Cl)c([N+](=O)[O-])c1
114 to 116 °C | COC(=O)CCCNc1nc2ccccc2s1
73 to 75 °C | O=C(O)C1CCN(C(=O)COc2ccccc2)CC1
86 to 88 °C | O=C(CCCl)Nc1ccccc1[N+](=O)[O-]
99 to 101 °C | CC(C)C(Br)C(=O)NC1CCCC1 (stereo not given)
99 to 101 °C | NCc1nnc2n1CCCC2
174 to 176 °C | O=C(O)CCOc1cccnc1
97 to 99 °C | Cc1cn2cccnc2n1
144 to 146 °C | O=Cc1c(-c2ccccc2)nc2ccccn12
195 to 205 °C | O=S(=O)(c1ccc(Br)s1)N1CCNCC1
109 to 111 °C | O=C(O)CC1OCCc2ccsc21 (stereo not given)
69 to 71 °C | Oc1cccc2ccc(N3CCCCC3)nc12
154 to 156 °C | CCc1[nH]n(C)c(=N)c1-c1ccc2c(c1)OCO2
63 to 65 °C | O=C(c1cc2ccccc2o1)C1CC1
195 to 197 °C | O=C(O)CCn1nnc2ccccc2c1=O
93 to 95 °C | O=C(O)CCCCc1ccc(O)c(O)c1
163 to 169 °C | O=S(=O)(c1ccc(C(F)(F)F)cc1)N1CCNCC1
246 to 248 °C | NC(=O)c1cc(N)cc(C(N)=O)c1
245 to 247 °C | CC(CC(=O)O)NC1=NS(=O)(=O)c2ccccc21 (stereo not given)
183 to 185 °C | ON=Cc1cnc2ccccn12

melting point | SMILES
91 to 93 °C | Nc1cc(F)cc(N2CCOCC2)c1
106 to 108 °C | CC(Sc1ccc(Cl)cc1)C(=O)O (stereo not given)
189 to 191 °C | Cc1cc(Oc2ccc(N)cc2)n[nH]1
219 to 221 °C | Nc1nncc(-c2cccc(Cl)c2)n1
103 to 105 °C | CCNc1ccncc1
146 to 148 °C | O=Cc1ccc(OC(F)(F)C(=O)O)cc1
146 to 148 °C | O=C(O)C1CCN(C(=O)c2ccccn2)CC1
139 to 141 °C | O=C(O)c1cccc(Br)c1I
93 to 95 °C | CC(C)(C)OC(=O)Nc1cc2c(cc1N)OCO2
172 to 174 °C | COc1ccc(-c2nc(C(=O)O)cs2)cc1
195 to 197 °C | N#CCC(=O)Nc1ccc(C(=O)O)cc1
98 to 100 °C | NC(=O)CCOc1ccccc1N
103 to 105 °C | COc1ccc(CNC(=O)CCl)cc1
89 to 91 °C | Fc1ccc(NCc2cccnc2)cc1
84 to 86 °C | CN(C)c1ccc2cc(N)ccc2n1
178 to 180 °C | Nc1ccc2nc(-c3ccccn3)oc2c1
231 to 233 °C | Cc1nnc(NC(=O)OCC(F)(F)F)s1
180 to 182 °C | O=C(NC1CC1)c1cc([N+](=O)[O-])ccc1Cl
124 to 126 °C | CC(c1ccccc1)n1c(N)nc2ccccc21 (stereo not given)
173 to 175 °C | NS(=O)(=O)c1ncccn1
103 to 105 °C | NCC(O)COc1ccc2c(c1)CCC(=O)N2 (stereo not given)
77 to 79 °C | CCOc1ccc(Br)cc1S(=O)(=O)Nc1ccc(N)cc1
113 to 115 °C | Nc1ccc(S(=O)(=O)Nc2cccc(C(F)(F)F)c2)cc1
128 to 130 °C | O=C(Nc1nc(-c2ccc(Cl)c(Cl)c2)cs1)C(Cl)c1ccccc1 (stereo not given)
153 to 155 °C | Cc1cc([N+](=O)[O-])n[nH]1

— a melting point compilation (Tetko et al.)
